Reference: patent US5017489A (priority 1988, dated 1991)
Entries after “also recorded” stand apart in the source; their conditions may differ. Read-outs that look alike come from different tables or passages of the source.

Key:
[1] = target: T1, CTL serine esterase (BLT-serine esterase) in extract of murine CTL clone G4 (Mus musculus, UniProt P11032)
T1 sequence (P11032 29-260): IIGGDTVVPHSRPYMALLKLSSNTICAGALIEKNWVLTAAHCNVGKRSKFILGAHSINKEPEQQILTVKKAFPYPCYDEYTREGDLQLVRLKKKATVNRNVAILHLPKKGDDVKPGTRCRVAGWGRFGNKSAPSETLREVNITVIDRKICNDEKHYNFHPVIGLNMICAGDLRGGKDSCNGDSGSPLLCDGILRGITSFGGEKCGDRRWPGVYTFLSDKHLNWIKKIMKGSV

G4 cells = assay: Toxicity of inhibitor for G4 cells (51Cr release, trypan blue recovery); type: cell-based, murine; conditions: PMSF at the concentrations shown (0.375-3 mM), 3% DMSO
[2] = tested on: cytolytic activity of human CTLs; assay: PMSF inhibition of cytolysis by human CTLs (2-h 51Cr-release assay); type: cell-based; conditions: 15 min in 6 mM PMSF
Protocol: ^51 Cr-release killing assays were performed as described; when measuring lectin-dependent cytolytic activity, Con A (Vector Laboratories,Inc., Burlingame, CA) was added to a final concentration of 10 μg/ml.
Various numbers of T cells were incubated for 15 min at 37° C. in K medium containing PMSF at 0, 2, 4, and 6 mM (PMSF was added in DMSO; the final concentration of DMSO in all instances was 1%). Cytotoxicity was assayed as above except that a 2 hour assay was used to minimize the effect of new protein synthesis.

[3] = tested on: lysis of P815 (H-2d) cells by cloned anti-Dd G4 cells
[4] = tested on: human CTLs and target cells; assay: Viability of human CTLs (trypan blue exclusion) and targets (51Cr release) after PMSF; conditions: 15 min in 6 mM PMSF
[5] = target: T1, CTL serine esterase (BLT-serine esterase) in extract of murine CTL clone G4; assay: biochemical; conditions: read-out: Percent Inhibition of esterase activity

Cc1ccc(S(=O)(=O)N[C@@H](Cc2ccccc2)C(=O)CCl)cc1 [TPCK, N-tosyl-L-phenylalanine chloromethyl ketone]
inhibition of murine CTL serine esterase activity (in words) ([1]; murine enzyme): not

O=S(=O)(F)Cc1ccccc1 [PMSF, phenylmethylsulfonyl fluoride]
added toxicity for G4 cells (51Cr release or reduced recovery of viable cells) (G4 cells): no added toxicity | reduction of cytotoxicity [2]: approximately 75% | Percent Inhibition of esterase activity [1]: 97.2 | inhibition of murine CTL serine esterase activity (in words) [1]: blocked completely; also recorded: inhibited; also recorded: completely inhibitable | inhibition of lysis of P815 cells by G4 cells (in words) ([3]; nontoxic concentrations, G4 preincubated 30 minutes at 37° C.): clearly inhibits lysis | viability of CTLs (trypan blue exclusion) and targets (release of 51Cr) [4]: not affecting the viability

Cc1ccc(S(=O)(=O)N[C@@H](CCCCN)C(=O)CCl)cc1 [TLCK, N-α-tosyl lysyl chloromethyl ketone]
inhibition of murine CTL serine esterase activity (in words) [1]: not and not, however, inhibited | inhibition of serine esterase (in words) [1]: not inhibited | inhibition at 500 µM [5]: 4.6%

aprotinin
inhibition in vitro of purified BLT serine esterase (in words) [1]: potent inhibitor | inhibition of serine esterase (in words) [1]: essentially totally inhibited | inhibition of CTL-mediated lysis (in words) [3]: does not inhibit | inhibition of cytotoxicity (in words) [3]: appears to inhibit cytotoxicity

α2 macroglobulin
inhibition of serine esterase (in words) [1]: not inhibited
